Data published in patent US20100267561A1, “HERBICIDAL PYRIDAZINONE DERIVATIVES” (priority 2007, published 2010).

Columns and labels:
Format in all cases: in vivo
[1] = test system: blackgrass (Alopecurus myosuroides); assay: Test B pre-/postemergence plant response; conditions: for Plant response rating, Blackgrass: Postemergence
How it was run: (§1)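 Seeds were sown and sprayed preemergence, while plants at 2 to 18 cm (1- to 4-leaf stage) got postemergence sprays. Compounds were formulated in a non-phytotoxic solvent mixture with surfactant. After 13 to 15 days in a greenhouse, injury was rated visually against untreated controls, 0 (no effect) to 100 (complete control).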

[2] = test system: cocklebur (Xanthium strumarium); assay: Test B pre-/postemergence plant response; conditions: for Cocklebur plant response rating: 8 g ai/ha
How it was run: as §1

[3] = test system: common (oilseed) sunflower (Helianthus annuus); assay: Test B pre-/postemergence plant response; conditions: Preemergence
How it was run: as §1

[4] = test system: common ragweed (Ambrosia elation); assay: Test B pre-/postemergence plant response; conditions: for Ragweed plant response rating: 8 g ai/ha
How it was run: as §1

[5] = test system: giant foxtail (Setaria faberii); assay: Test B pre-/postemergence plant response; conditions: for Foxtail, Giant plant response rating: 8 g ai/ha
How it was run: as §1

[6] = test system: goosegrass (Eleusine indica); assay: Test B pre-/postemergence plant response; conditions: for Goosegrass plant response rating: 8 g ai/ha
How it was run: as §1

[7] = test system: johnsongrass (Sorghum halepense); assay: Test B pre-/postemergence plant response; conditions: for Johnsongrass plant response rating: 8 g ai/ha
How it was run: as §1

[8] = test system: lambsquarters (Chenopodium album); assay: Test B pre-/postemergence plant response; conditions: for Lambsquarters plant response rating: 8 g ai/ha
How it was run: as §1

[9] = test system: large crabgrass (Digitaria sanguinalis); assay: Test B pre-/postemergence plant response; conditions: for Crabgrass, Large plant response rating: 8 g ai/ha
How it was run: as §1

[10] = test system: wheat (Triticum aestivum); assay: Test B pre-/postemergence plant response; conditions: for Wheat plant response rating: 8 g ai/ha
How it was run: as §1

wild oat (Avena fatua) = assay: Test B pre-/postemergence plant response; conditions: for Oat, Wild plant response rating: 8 g ai/ha
How it was run: as §1

[11] = test system: yellow nutsedge (Cyperus esculentus); assay: Test B pre-/postemergence plant response; conditions: for Nutsedge, Yellow plant response rating: 8 g ai/ha
How it was run: as §1

[12] = test system: windgrass (Apera spica-venti); assay: Test B postemergence plant response; conditions: for Plant response rating, Windgrass: Postemergence
Protocol: (§2) At the same time, plants selected from these crop and weed species and also winter barley (Hordeum vulgare), canarygrass (Phalaris minor), chickweed (Stellaria media) and windgrass (Apera spica-venti) were treated with postemergence applications of some of the test chemicals formulated in the same manner. Plants ranged in height from 2 to 18 cm (1- to 4-leaf stage) for postemergence treatments.
(§3) Plant species in the flooded paddy test consisted of rice (Oryza sativa), umbrella sedge (Cyperus difformis), ducksalad (Heteranthera limosa) and barnyardgrass (Echinochloa crus-galli) grown to the 2-leaf stage for testing. At time of treatment, test pots were flooded to 3 cm above the soil surface, treated by application of test compounds directly to the paddy water, and then maintained at that water depth for the duration of the test. Treated plants and controls were maintained in a greenhouse for 13 to 15 days, after which time all species were compared to controls and visually evaluated. Plant response ratings, summarized in Table B, are based on a scale of 0 to 100 where 0 is no effect and 100 is complete control. A dash (-) response means no test result.

[13] = test system: winter barley (Hordeum vulgare); assay: Test B postemergence plant response; conditions: for Plant response rating, Barley: Postemergence, scale 0 to 100, 0 no effect, 100 complete control
Protocol: as §2, §3

[14] = 8 g ai/ha, postemergence, 0-100 scale
[15] = 62 g ai/ha, scale 0 to 100, 0 no effect, 100 complete control
[16] = Postemergence, 16 g ai/ha, scale 0 to 100
[17] = Postemergence, 31 g ai/ha, scale 0 to 100, 0 no effect, 100 complete control
[18] = Postemergence, 62 g ai/ha, scale 0 to 100, 0 no effect, 100 complete control
[19] = Preemergence, 16 g ai/ha, scale 0 to 100 (0 no effect, 100 complete control)
[20] = Preemergence, 31 g ai/ha, 0 to 100 scale, 0 no effect, 100 complete control
[21] = Preemergence, 62 g ai/ha, scale 0 to 100

## Cn1ncc(O)c(-c2nn(-c3ccc(Cl)cc3)cc2Cl)c1=O [Compound 28]
[1]; [14]
  Blackgrass plant response rating: 60
[1]; 16 g ai/ha, scale 0 to 100
  Plant response rating, Blackgrass: 70
[1]; 31 g ai/ha, scale 0 to 100, 0 no effect, 100 complete control
  Plant response rating, Blackgrass: 95
[1]; [15]
  Plant response rating, Blackgrass: 100
[2]; postemergence, 0-100 scale
  Cocklebur plant response rating: 0
[2]; [16]
  Plant response rating, Cocklebur: 0
[2]; [17]
  Plant response rating, Cocklebur: 0
[2]; [18]
  Plant response rating, Cocklebur: 0
[2]; [19]
  Plant response rating, Cocklebur: 0
[2]; [20]
  Plant response rating, Cocklebur: 0
[2]; [21]
  Plant response rating, Cocklebur: 0
[2]; Preemergence, scale 0 to 100
  Cocklebur plant response rating: 0
[3]; 16 g ai/ha, scale 0 to 100 (0 no effect, 100 complete control)
  Plant response rating, Sunflower: 0
[3]; 31 g ai/ha, 0 to 100 scale, 0 no effect, 100 complete control
  Plant response rating, Sunflower: 0
[3]; 62 g ai/ha, scale 0 to 100
  Plant response rating, Sunflower: 0
[3]; 8 g ai/ha, scale 0 to 100
  Sunflower plant response rating: 0
[4]; postemergence, 0-100 scale
  Ragweed plant response rating: 0
[4]; [16]
  Plant response rating, Ragweed: 0
[4]; [17]
  Plant response rating, Ragweed: 0
[4]; [18]
  Plant response rating, Ragweed: 0
[4]; [19]
  Plant response rating, Ragweed: 0
[4]; [20]
  Plant response rating, Ragweed: 0
[4]; [21]
  Plant response rating, Ragweed: 0
[4]; Preemergence, scale 0 to 100
  Ragweed plant response rating: 0
[5]; postemergence, 0-100 scale
  Foxtail, Giant plant response rating: 65
[5]; [16]
  Plant response rating, Foxtail, Giant: 80
[5]; [17]
  Plant response rating, Foxtail, Giant: 95
[5]; [18]
  Plant response rating, Foxtail, Giant: 100
[5]; [19]
  Plant response rating, Foxtail, Giant: 98
[5]; [20]
  Plant response rating, Foxtail, Giant: 100
[5]; [21]
  Plant response rating, Foxtail, Giant: 100
[5]; Preemergence, scale 0 to 100
  Foxtail, Giant plant response rating: 60
[6]; postemergence, 0-100 scale
  Goosegrass plant response rating: 65
[6]; [16]
  Plant response rating, Goosegrass: 75
[6]; [17]
  Plant response rating, Goosegrass: 80
[6]; [18]
  Plant response rating, Goosegrass: 90
[6]; [19]
  Plant response rating, Goosegrass: 100
[6]; [20]
  Plant response rating, Goosegrass: 100
[6]; [21]
  Plant response rating, Goosegrass: 100
[6]; Preemergence, scale 0 to 100
  Goosegrass plant response rating: 80
[7]; postemergence, 0-100 scale
  Johnsongrass plant response rating: 20
[7]; [16]
  Plant response rating, Johnsongrass: 65
[7]; [17]
  Plant response rating, Johnsongrass: 75
[7]; [18]
  Plant response rating, Johnsongrass: 98
[7]; [19]
  Plant response rating, Johnsongrass: 85
[7]; [20]
  Plant response rating, Johnsongrass: 98
[7]; [21]
  Plant response rating, Johnsongrass: 100
[7]; Preemergence, scale 0 to 100
  Johnsongrass plant response rating: 70
[8]; postemergence, 0-100 scale
  Lambsquarters plant response rating: 0
[8]; [16]
  Plant response rating, Lambsquarters: 0
[8]; [17]
  Plant response rating, Lambsquarters: 0
[8]; [18]
  Plant response rating, Lambsquarters: 0
[8]; [19]
  Plant response rating, Lambsquarters: 95
[8]; [20]
  Plant response rating, Lambsquarters: 95
[8]; [21]
  Plant response rating, Lambsquarters: 98
[8]; Preemergence, scale 0 to 100
  Lambsquarters plant response rating: 80
[9]; postemergence, 0-100 scale
  Crabgrass, Large plant response rating: 60
[9]; [16]
  Plant response rating, Crabgrass, Large: 75
[9]; [17]
  Plant response rating, Crabgrass, Large: 80
[9]; [18]
  Plant response rating, Crabgrass, Large: 98
[9]; [19]
  Plant response rating, Crabgrass, Large: 98
[9]; [20]
  Plant response rating, Crabgrass, Large: 100
[9]; [21]
  Plant response rating, Crabgrass, Large: 100
[9]; Preemergence, scale 0 to 100
  Crabgrass, Large plant response rating: 65
[10]; postemergence, 0-100 scale
  Wheat plant response rating: 20
[10]; [16]
  Plant response rating, Wheat: 40
[10]; [18]
  Plant response rating, Wheat: 90
[10]; [19]
  Plant response rating, Wheat: 5
[10]; [20]
  Plant response rating, Wheat: 15
[10]; [21]
  Plant response rating, Wheat: 90
[10]; Preemergence, scale 0 to 100
  Wheat plant response rating: 0
Wild oat (Avena fatua); postemergence, 0-100 scale
  Oat, Wild plant response rating: 45
Wild oat (Avena fatua); [16]
  Plant response rating, Oat, Wild: 80
Wild oat (Avena fatua); [17]
  Plant response rating, Oat, Wild: 95
Wild oat (Avena fatua); [18]
  Plant response rating, Oat, Wild: 98
Wild oat (Avena fatua); [19]
  Plant response rating, Oat, Wild: 50
Wild oat (Avena fatua); [20]
  Plant response rating, Oat, Wild: 70
Wild oat (Avena fatua); [21]
  Plant response rating, Oat, Wild: 90
Wild oat (Avena fatua); Preemergence, scale 0 to 100
  Oat, Wild plant response rating: 0
[11]; postemergence, 0-100 scale
  Nutsedge, Yellow plant response rating: 0
[11]; [16]
  Plant response rating, Nutsedge, Yellow: 0
[11]; [17]
  Plant response rating, Nutsedge, Yellow: 0
[11]; [18]
  Plant response rating, Nutsedge, Yellow: 0
[11]; [19]
  Plant response rating, Nutsedge, Yellow: 0
[11]; [20]
  Plant response rating, Nutsedge, Yellow: 0
[11]; [21]
  Plant response rating, Nutsedge, Yellow: 0
[11]; Preemergence, scale 0 to 100
  Nutsedge, Yellow plant response rating: 0
[12]; [14]
  Windgrass plant response rating: 0
[12]; 16 g ai/ha, scale 0 to 100
  Plant response rating, Windgrass: 35
[12]; [15]
  Plant response rating, Windgrass: 85
[13]; [14]
  Barley plant response rating: 0
[13]; 16 g ai/ha
  Plant response rating, Barley: 0
[13]; 31 g ai/ha
  Plant response rating, Barley: 50
